What all share (format): functional, cell-based
Test [1] has as its system Bcap37. Put plainly: Antitumor activity against human Bcap37 cell line by MTT assay.
The test system of test [2] is SMMC-7721. Put plainly: Antitumor activity against human SMMC7721 cell line by MTT assay. A general note: Tetrazolium assays rely on reduction of a dye to a coloured formazan, in cell work by metabolically active cells.
Test [3] has as its system RKO. Kind of test: Antitumor activity against human RKO cell line by MTT assay.
Test [4] deals with K562. Put plainly: Antitumor activity against human K562 cell line by MTT assay.

Converted amounts (≈) assume the structure as drawn.

In the case of `CC1(C)CC[C@]2(C)CC[C@]3(C)C(=CC[C@@H]4[C@@]5(C)CC[C@H](O)C(C)(C)[C@@H]5[C@@H](O)C[C@]43C)C2C1` (some centres not stated), the IC50 in test [1] amounted to 14.6 µg/mL (≈ 32.9 µM); in test [2] it was 22.7 µg/mL (≈ 51.3 µM); in test [3], 12.2 µg/mL (≈ 27.6 µM); in test [4], 11.2 µg/mL (≈ 25.3 µM).

Turning to `CC1=C(C)[C@@H]2CC(=O)c3cc(O)c(O)cc3[C@@]2(C)CC1` [CELAHYPODIOL], the IC50 came to 24.4 µg/mL (≈ 89.7 µM) in test [1], 38 µg/mL (≈ 140 µM) in test [2], 27.2 µg/mL (≈ 99.7 µM) in test [3] and 16.2 µg/mL (≈ 59.5 µM) in test [4].

For `CO[C@@]12[C@H](COC(N)=O)C3=C(C(=O)C(C)=C(N)C3=O)N1C[C@@H]1N[C@@H]12` [MITOMYCIN], the IC50 came to 2.33 µg/mL (≈ 6.97 µM) in test [1], 2.44 µg/mL (≈ 7.3 µM) in test [2], 1.75 µg/mL (≈ 5.23 µM) in test [3] and 3.35 µg/mL (≈ 10 µM) in test [4].

As a reminder, the IC50 is the concentration needed to halve the response being measured.

Values taken from ChEMBL document CHEMBL1146968, “Novel skeleton terpenes from Celastrus hypoleucus with anti-tumor activities” (Bioorg Med Chem Lett, 2006).
